Data published in US10076519B2 (CYTOKINETICS, INC., priority 2010, dated 2018).

Test system: rabbit skeletal myofibrils (fast skeletal myofibrils)
Test: Activation of fast skeletal myofibrils (PUMA assay, PK/LDH-coupled ATPase at pCa25)
Format: biochemical
How it was run: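 ATPase activity of Triton-washed rabbit skeletal myofibrils, roughly 90% fast fibres, tracked by NADH loss at 340 nm through a PK/LDH-coupled ADP-regenerating system. Calcium set to 25% of maximal activity (pCa25), in PIPES 12 mM pH 6.8 with 2 mM MgCl2 and 1 mM DTT; AC1.4 reported.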

[1] = median AC1.4 reported as class, procedure of Example 39
[2] = median AC1.4 class, procedure of Example 39

| SMILES | Mean AC1.4 [1] | other results |
| --- | --- | --- |
| NC(=O)C1CCc2sc(-c3ccc(NCC4(c5ncccc5F)CCC4)nn3)nc21 (centres unmarked) [2-[6-({[(3-fluoro-2-pyridyl)cyclobutyl]methyl}ami-no)pyridazin-3-yl]-4,5,6-trihydrocyclopenta[1,2-d]1,3-thiazole-4-carboxamide] | D (D=>20 uM) |  |
| O=C(O)C1CCc2sc(-c3ccc(NCC4(c5ncccc5F)CCC4)nn3)nc21 (centres unmarked) [2-[6-({[(3-fluoro-2-pyridyl)cyclobutyl]methyl}ami-no)pyridazin-3-yl]-4,5,6-trihydrocyclopenta[1,2-d]1,3-thiazole-4-carboxylic acid] | D (D=>20 uM) |  |
| NC(=O)c1c[nH]c(-c2ccc(NCC3(c4ncccc4F)CCC3)nn2)n1 [2-[6-({[(3-fluoro-2-pyridyl)cyclobutyl]methyl}ami-no)pyridazin-3-yl]imidazole-4-carboxamide] |  | Mean AC1.4 [2]: B (B=1-10 uM) |
| NC(=O)c1ccnc(-c2ccc(NCC3(c4ncccc4F)CCC3)nn2)n1 [2-[6-({[(3-fluoro-2-pyridyl)cyclobutyl]methyl}ami-no)pyridazin-3-yl]pyrimidine-4-carboxamide] |  | Mean AC1.4 [2]: A (A=<1 uM) |
| O=C1NCc2cc(-c3ccc(NCC4(c5ncccc5F)CCC4)nn3)sc21 [2-[6-({[(3-fluoro-2-pyridyl)cyclobutyl]methyl}ami-no)pyridazin-3-yl]thiopheno[2,3-c]3-pyrrolin-6-one] |  | Mean AC1.4 [2]: B (B=1-10 uM) |
| NC(=O)CNCc1cnc(-c2ccc(NCC3(c4ncccc4F)CCC3)nn2)s1 [2-[({2-[6-({[(3-fluoro-2-pyridyl)cyclobutyl]methyl}ami-no)pyridazin-3-yl]-1,3-thiazol-5-yl}methyl)amino]acetamide] |  | Mean AC1.4 [2]: B (B=1-10 uM) |
| OCCNCc1cnc(-c2ccc(NCC3(c4ncccc4F)CCC3)nn2)s1 [2-[({2-[6-({[(3-fluoro-2-pyridyl)cyclobutyl]methyl}ami-no)pyridazin-3-yl]-1,3-thiazol-5-yl}methyl)amino]ethan-1-ol] | B (B=1-10 uM) |  |
| CN(Cc1cnc(-c2ccc(NCC3(c4ncccc4F)CCC3)nn2)s1)C(=O)C(C)(C)N [2-amino-N-({2-[6-({[(3-fluoro(2-pyridyl))cyclobutyl]methyl}ami-no)pyridazin-3-yl](1,3-thiazol-5-yl)}methyl)-2-methyl-N-methylpropanamide] | A (A=<1 uM) |  |
| CC(C)(N)C(=O)NCc1cnc(-c2ccc(NCC3(c4ncccc4F)CCC3)nn2)s1 [2-amino-N-({2-[6-({[(3-fluoro(2-pyridyl))cyclobutyl]methyl}ami-no)pyridazin-3-yl](1,3-thiazol-5-yl)}methyl)-2-methylpropanamide] |  | Mean AC1.4 [2]: A (A=<1 uM) |
| NCC(=O)NCc1cnc(-c2ccc(NCC3(c4ncccc4F)CCC3)nn2)s1 [2-amino-N-({2-[6-({[(3-fluoro(2-pyridyl))cyclobutyl]methyl}ami-no)pyridazin-3-yl](1,3-thiazol-5-yl)}methyl)acetamide] |  | Mean AC1.4 [2]: A (A=<1 uM) |
| CC(C)(N)C(=O)NCc1cnc(-c2ccc(NCC(C)(C)c3ncccc3Cl)nn2)s1 [2-amino-N-{[2-(6-{[2-(3-chloro(2-pyridyl))-2-methylpropyl]amino}pyridazin-3-yl)(1,3-thiazol-5-yl)]methyl}-2-methylpropanamide] | A (A=<1 uM) |  |
| CC(C)(CNc1ccc(-c2ccc(C(=O)O)c(F)c2)nn1)c1ccc(F)cc1 [2-fluoro-4-(6-{[2-(4-fluorophenyl)-2-methylpropyl]amino}pyridazin-3-yl)benzoic acid] |  | Mean AC1.4 (AC1.4 determined according to the procedure of Example 39, reported as class symbols): D (D=>20 uM) |
| O=C(O)c1cc(-c2ccc(NC[C@]3(c4ncccc4F)C[C@H](F)C3)nn2)ccc1F [2-fluoro-5-[6-({[3-fluoro-1-(3-fluoro(2-pyridyl))cyclobutyl]methyl}ami-no)pyridazin-3-yl]benzoic acid] | B (B=1-10 uM) |  |
| NC(=O)Cc1cnc(-c2ccc(NC[C@]3(c4ncccc4Cl)C[C@H](F)C3)nn2)s1 [2-{2-[6-({[1-(3-chloro(2-pyridyl))-3-fluorocyclobutyl]methyl}ami-no)pyridazin-3-yl]-1,3-thiazol-5-yl}acetamide] | B (B=1-10 uM) |  |
| CNC(=O)Cc1cnc(-c2ccc(NC[C@]3(c4ncccc4Cl)C[C@H](F)C3)nn2)s1 [2-{2-[6-({[1-(3-chloro(2-pyridyl))-3-fluorocyclobutyl]methyl}amino)pyr-idazin-3-yl](1,3-thiazol-5-yl)}-N-methylacetamide] | B (B=1-10 uM) |  |
| NC(=O)Cc1cnc(-c2ccc(NC[C@]3(c4ncccc4F)C[C@H](F)C3)nn2)s1 [2-{2-[6-({[3-fluoro-1-(3-fluoro(2-pyridyl))cyclobutyl]methyl}ami-no)pyridazin-3-yl]-1,3-thiazol-5-yl}acetamide] | B (B=1-10 uM) |  |
| O=C(O)Cc1cnc(-c2ccc(NC[C@]3(c4ncccc4F)C[C@H](F)C3)nn2)s1 [2-{2-[6-({[3-fluoro-1-(3-fluoro(2-pyridyl))cyclobutyl]methyl}ami-no)pyridazin-3-yl]-1,3-thiazol-5-yl}acetic acid] | B (B=1-10 uM) |  |
| CNC(=O)Cc1cnc(-c2ccc(NCC3(c4ncccc4Cl)CCC3)nn2)s1 [2-{2-[6-({[(3-chloro(2-pyridyl))cyclobutyl]methyl}ami-no)pyridazin-3-yl](1,3-thiazol-5-yl)}-N-methylacetamide] | A (A=<1 uM) |  |

| SMILES | Mean AC1.4 [1] | other results |
| --- | --- | --- |
| NC(=O)Cc1cnc(-c2ccc(NCC3(c4ncccc4Cl)CCC3)nn2)s1 [2-{2-[6-({[(3-chloro-2-pyridyl)cyclobutyl]methyl}ami-no)pyridazin-3-yl]-1,3-thiazol-5-yl}acetamide] | A (A=<1 uM) |  |
| CC(C)(C(N)=O)c1cnc(-c2ccc(NCC3(c4ncccc4F)CCC3)nn2)s1 [2-{2-[6-({[(3-fluoro(2-pyridyl))cyclobutyl]methyl}ami-no)pyridazin-3-yl](1,3-thiazol-5-yl)}-2-methylpropanamide] | D (D=>20 uM) |  |
| CC(C)(C#N)c1cnc(-c2ccc(NCC3(c4ncccc4F)CCC3)nn2)s1 [2-{2-[6-({[(3-fluoro(2-pyridyl))cyclobutyl]methyl}ami-no)pyridazin-3-yl](1,3-thiazol-5-yl)}-2-methylpropanenitrile] | D (D=>20 uM) |  |
| CN(C)C(=O)Cc1cnc(-c2ccc(NCC3(c4ncccc4F)CCC3)nn2)s1 [2-{2-[6-({[(3-fluoro(2-pyridyl))cyclobutyl]methyl}ami-no)pyridazin-3-yl](1,3-thiazol-5-yl)}-N,N-dimethylacetamide] | B (B=1-10 uM) |  |
| CNC(=O)Cc1cnc(-c2ccc(NCC3(c4ncccc4F)CCC3)nn2)s1 [2-{2-[6-({[(3-fluoro(2-pyridyl))cyclobutyl]methyl}ami-no)pyridazin-3-yl](1,3-thiazol-5-yl)}-N-methylacetamide] | B (B=1-10 uM) |  |
| CNC(=O)Cc1cnc(-c2nnc(NCC3(c4ncccc4F)CCC3)cc2C)s1 [2-{2-[6-({[(3-fluoro(2-pyridyl))cyclobutyl]methyl}amino)-4-methylpyridazin-3-yl](1,3-thiazol-5-yl)}-N-methylacetamide] | B (B=1-10 uM) |  |
| Cc1cc(NCC2(c3ncccc3F)CCC2)nnc1-c1ncc(CC(N)=O)s1 [2-{2-[6-({[(3-fluoro(2-pyridyl))cyclobutyl]methyl}amino)-4-methylpyridazin-3-yl]-1,3-thiazol-5-yl}acetamide] | B (B=1-10 uM) |  |
| Cc1cc(NCC2(c3ncccc3F)CCC2)nnc1-c1ncc(CC(=O)O)s1 [2-{2-[6-({[(3-fluoro(2-pyridyl))cyclobutyl]methyl}amino)-4-methylpyridazin-3-yl]-1,3-thiazol-5-yl}acetic acid] | B (B=1-10 uM) |  |
| NC(=O)Cc1csc(-c2ccc(NCC3(c4ncccc4F)CCC3)nn2)n1 [2-{2-[6-({[(3-fluoro-2-pyridyl)cyclobutyl]methyl}ami-no)pyridazin-3-yl]-1,3-thiazol-4-yl}acetamide] | D (D=>20 uM) |  |
| NC(=O)Cc1cnc(-c2ccc(NCC3(c4ncccc4F)CCC3)nn2)s1 [2-{2-[6-({[(3-fluoro-2-pyridyl)cyclobutyl]methyl}ami-no)pyridazin-3-yl]-1,3-thiazol-5-yl}acetamide] |  | Mean AC1.4 [2]: B (B=1-10 uM) |
| O=C(O)Cc1cnc(-c2ccc(NCC3(c4ncccc4F)CCC3)nn2)s1 [2-{2-[6-({[(3-fluoro-2-pyridyl)cyclobutyl]methyl}ami-no)pyridazin-3-yl]-1,3-thiazol-5-yl}acetic acid] | B (B=1-10 uM) |  |
| CC(C)(O)c1cnc(-c2ccc(NCC3(c4ncccc4F)CCC3)nn2)s1 [2-{2-[6-({[(3-fluoro-2-pyridyl)cyclobutyl]methyl}ami-no)pyridazin-3-yl]-1,3-thiazol-5-yl}propan-2-ol] |  | Mean AC1.4 [2]: C (C=10-20 uM) |
| NC(=O)Cc1ccc(F)c(-c2ccc(NCC3(c4ncccc4F)CCC3)nn2)c1 [2-{4-fluoro-3-[6-({[(3-fluoro(2-pyridyl))cyclobutyl]methyl}ami-no)pyridazin-3-yl]phenyl}acetamide] | B (B=1-10 uM) |  |
| NC(=O)Cn1nnc(-c2ccc(NCC3(c4ncccc4F)CCC3)nn2)n1 [2-{5-[6-({[(3-fluoro-2-pyridyl)cyclobutyl]methyl}ami-no)pyridazin-3-yl]-1,2,3,4-tetraazol-2-yl}acetamide] |  | Mean AC1.4 [2]: D (D=>20 uM) |
| CC(C)(CNc1ccc(-c2ccc3[nH]nc(NCCO)c3c2)nn1)c1ccc(F)cc1 [2-{[5-(6-{[2-(4-fluorophenyl)-2-methylpropyl]amino}pyridazin-3-yl)-1H-indazol-3-yl]amino}ethan-1-ol] |  | Mean AC1.4 [2]: A (A=<1 uM) |
| NC(=O)c1csc(NC(=O)c2ccc(NCC3(c4ncccc4F)CCC3)nn2)n1 [2-{[6-({[(3-fluoro-2-pyridyl)cyclobutyl]methyl}ami-no)pyridazin-3-yl]carbonylamino}-1,3-thiazole-4-carboxamide] | A (A=<1 uM) |  |
| NC(=O)C1CCCC1NC(=O)c1ccc(NCC2(c3ncccc3F)CCC2)nn1 (centres unmarked) [2-{[6-({[(3-fluoro-2-pyridyl)cyclobutyl]methyl}ami-no)pyridazin-3-yl]carbonylamino}cyclopentane-carboxamide] | D (D=>20 uM) |  |
